These results are taken from PMC9917735, “Optimization of the Hemolysis Assay for the Assessment of Cytotoxicity” (International Journal of Molecular Sciences, 2023).

In data set [1] the test system is washed human erythrocytes. The data set can be described thus: Hemolysis assay, washed human erythrocytes.
A further data set has as its system human whole blood. The settings on record: human whole blood, 60 min 37 °C; for Calculated hemolysis ratio: peptides 100 μM, neg. PBS, 3 x 2 replicates.
The subject of data set [2] is washed human erythrocytes. The data set can be described thus: Flow cytometry of treated erythrocytes with live/dead amine-reactive stain. Type of data set: cell-based. The note with it: washed human erythrocytes treated 60 minutes, AMPs 100 μM, amine-reactive dye 488, flow cytometry 533/30 nm. The method, then: Briefly, a 1% washed erythrocyte solution was diluted to ~10^5 cells/mL and 0.4% Trypan blue (1:1 ratio) was added before 10 μL of the stained cell suspension was added to the Countess cell counting chamber slide. After a 30 s incubation, the slide was inserted into the instrument for automatic cell counting.
The Countess II automated cell counter (see above) was used to adjust the negative control sample to ~10^5 cells/mL and to subsequently dilute all samples by the same factor. Then, 0.5 μL of live/dead amine-reactive dye 488 (Fisher Scientific, Waltham, MA, USA) was added to 0.5 mL cell suspension and incubated for 30 min protected from light. Subsequently, the samples were washed twice with PBS pH 7 containing 1% bovine serum albumin (BSA), and finally resuspended in PBS pH 7 with 1% BSA. Cells were next counted, and the fluorescence measured using the 533/30 nm filter in an Accuri C6 flow cytometer (BD Biosciences, Franklin Lakes, NJ, USA).
Background: Flow cytometry measures light scatter and fluorescence of single cells or particles in a stream.

The next data set has as its system rabbit whole blood. The note with it: cf. Tables S3 and S4; 100 μM. An excerpt: (§1) Cytotoxicity studies are important during characterization of novel compounds or materials intended for interactions within human biological systems in vivo. Evaluation of the extent to which the compound induces disruption of the membrane of erythrocytes (red blood cells), thereby causing release of cellular content, often constitutes an initial step in such cytotoxicity assessments. The assay used in this context is generally referred to as the hemolysis assay, which has the advantages of being cheap, accessible, and simple to perform. Blood is drawn from a human or an animal, and next, the washed erythrocytes are incubated together with the compound or material under investigation. If the compound causes hemolysis, hemoglobin (along with other cellular constituents) will be released into the supernatant.
(§2) Blood from mice, rats, and rabbits was provided by the Department of Comparative Medicine at Oslo University Hospital (Marianne Aannestad). For mice and rats, the blood was collected from the heart by using 25 G and 21 G needles, respectively, whereas for rabbits, the blood was collected by free bleed through the ear using a yellow neoflon (24 G). All animals were wild type and anesthetized prior to the procedure.
(§3) All blood was collected in Lithium Heparin tubes 4 mL (Greiner Bio-One, Kremsmünster, Austria) or Coagulation sodium citrate 3.2% tubes 3 mL (Greiner Bio-One).
(§4) AMP 2 contained an N-terminal hexanoic acid moiety, whereas all peptides contained amidated C-termini. These three peptides were synthesized by Genscript Inc. (Piscataway, NJ, USA), and stock solutions of 1 mg/mL were made from the purchased powders. […] All peptides were diluted to yield a 100 μM final concentration in the hemolysis assays.
(§5) Triton X-100 (T8787) and Tween-20 (P2287) detergents were purchased from Sigma Aldrich and diluted to obtain 10% stock solutions by weighing (w/v). A sodium Dodecyl Sulfate (SDS) 10% solution was purchased from Invitrogen (Waltham, MA, USA, 15553027). All subsequent dilutions annotated in figures were made from these stocks.
(§6) As soon as possible after phlebotomy, the blood samples were centrifuged at 1700× g for 5 min. The supernatant was removed by aspiration and 2 mL of PBS pH 7 was added. The washing step was repeated three times or until the supernatant was clear. After final aspiration, the remaining pellet was diluted 1:100 in PBS pH 7 to obtain a 1% erythrocyte suspension (or 1:100, 1:50, and 1:20 for assays testing the effect of erythrocyte concentration). For experiments using whole blood, the washing steps were not performed, but downstream experimentation was identical. For experiments performed with 96-well plates, 50 μL of test compound, water, or detergent were mixed with 50 μL of blood sample (1% erythrocyte suspension or whole blood). For experiments using larger volumes, 250 μL of test compound, water, or detergent were mixed with 250 μL blood sample in an Eppendorf tube. Samples were subsequently incubated at 37 °C for 60 min (or 15, 30, 60, 90, or 120 min for assays evaluating the effect of incubation time). After incubation, the plates/tubes were centrifuged at 1700× g for 5 min, and then 50 μL of the supernatants were transferred to transparent, flat-bottom 96-well plates (Anicrin, A013418). Finally, absorption was measured at 405, 530, and 570 nm in a Victor Nivo Multimode microplate reader (Perkin Elmer, Waltham, MA, USA).

Another data set relates to rabbit erythrocytes. The settings on record: Table S4: washed rabbit erythrocytes, OD 405 nm, AMPs 100 μM, 1 hour 37 °C, pos. 10% Triton X-100, neg. PBS; 3 x 2 replicates.
From the text: as §1, §2, §3, §4, §5, §6

A further data set deals with rat erythrocytes. The settings on record: Table S4: washed rat erythrocytes, OD 405 nm, AMPs 100 μM, 1 hour 37 °C, pos. 10% Triton X-100, neg. PBS; 3 x 2 replicates.
From the text: as §1, §2, §3, §4, §5, §6

The test system of another data set is mouse erythrocytes. The note with it: Table 1, 1% erythrocytes, 100 µM.
From the text: as §1, §2, §3, §4, §5, §6

Setting [3] is: human individual # 1, 1% erythrocytes, AMPs 100 µM, 60 min 37 °C, 405 nm, pos. 10% Triton X, neg. PBS, 3 x 2 replicates.
The mark [4] stands for this setting: human individual # 2, 1% erythrocytes, AMPs 100 µM, 60 min 37 °C, 405 nm, pos. 10% Triton X, neg. PBS, 3 x 2 replicates.
Setting [5] is: human individual # 3, 1% erythrocytes, AMPs 100 µM, 60 min 37 °C, 405 nm, pos. 10% Triton X, neg. PBS, 3 x 2 replicates.
[6] abbreviates: human individual # 4, 1% erythrocytes, AMPs 100 µM, 60 min 37 °C, 405 nm, pos. 10% Triton X, neg. PBS, 3 x 2 replicates.
Where [7] appears, read: human individual # 5, 1% erythrocytes, AMPs 100 µM, 60 min 37 °C, 405 nm, pos. 10% Triton X, neg. PBS, 3 x 2 replicates.
Setting [8] is: human individual # 6, 1% erythrocytes, AMPs 100 µM, 60 min 37 °C, 405 nm, pos. 10% Triton X, neg. PBS, 3 x 2 replicates.
Setting [9] is: human individual # 7, 1% erythrocytes, AMPs 100 µM, 60 min 37 °C, 405 nm, pos. 10% Triton X, neg. PBS, 3 x 2 replicates.
The mark [10] stands for this setting: human individual # 8, 1% erythrocytes, AMPs 100 µM, 60 min 37 °C, 405 nm, pos. 10% Triton X, neg. PBS, 3 x 2 replicates.
[11] abbreviates: human individual # 9, 1% erythrocytes, AMPs 100 µM, 60 min 37 °C, 405 nm, pos. 10% Triton X, neg. PBS, 3 x 2 replicates.
The mark [12] stands for this setting: human individual # 10, 1% erythrocytes, AMPs 100 µM, 60 min 37 °C, 405 nm, pos. 10% Triton X, neg. PBS, 3 x 2 replicates.
The mark [13] stands for this setting: 10% detergent, highest absorbance.

Like-named read-outs stand apart in the source and are kept apart here. No end group written: not given here.

`O` [dH2O, distilled water]: the Calculated hemolysis ratio in data set [1] (1% washed human erythrocytes, OD 530 nm, peptides 100 μM, 60 min 37 °C, pos. 10% Triton X-100, neg. PBS, 3 x 2 replicates) is recorded as 67.6 ± 8.7%; in data set [1] (Table 2: pooled blood from all 10 individuals, 1% erythrocytes, AMPs 100 µM, 60 min 37 °C, 405 nm, pos. 10% Triton X, neg. PBS, 3 x 2 replicates) it was 32.6 ± 7.3%; in data set [1] (Table 4: incubation 60 min, 37 °C, 1% human erythrocytes, AMPs 100 µM, 405 nm, pos. 10% Triton X-100, neg. PBS, 3 biological x 2 technical replicates), 37.1 ±14.2%; in data set [1] (Table 6: 1% washed human erythrocytes, OD 405 nm, peptides 100 μM, 60 min 37 °C, pos. 10% Triton X-100, neg. PBS, 3 x 2 replicates), 73.9 ± 7.5%; in data set [1] (setting [3]), 38 ± 12.3%; in data set [1] (setting [4]), 57.7 ± 12.2%. Besides, the Calculated hemolysis ratio in data set [1] (setting [5]) is 50.8 ± 8.8%; in data set [1] (setting [6]) it was 47.2 ± 5.6%; in data set [1] (setting [7]), 38.8 ± 12.1%; in data set [1] (setting [8]) it was 36.2 ± 10.8%; in data set [1] (setting [9]) it was 49.6 ± 15.2%; in data set [1] (setting [10]), 49.4 ± 16.9%. The Calculated hemolysis ratio is listed as 49.1 ± 22.5% in data set [1] (setting [11]); 39.4 ± 10.7% in data set [1] (setting [12]); 29.5 ± 6% in data set [1] (incubated in polypropylene tubes, 1% washed human erythrocytes, peptides 100 μM, 60 min 37 °C, 405 nm, pos. 10% Triton X-100, neg. PBS, 3 x 2 replicates); 43.1 ± 18.6% in data set [1] (incubated in polystyrene tubes, 1% washed human erythrocytes, peptides 100 μM, 60 min 37 °C, 405 nm, pos. 10% Triton X-100, neg. PBS, 3 x 2 replicates); 32.8 ± 12.1% in data set [1] (incubation 15 min, 37 °C, 1% human erythrocytes, AMPs 100 µM, 405 nm, pos. 10% Triton X-100, neg. PBS, 3 biological x 2 technical replicates); 34.8 ± 12.7% in data set [1] (incubation 30 min, 37 °C, 1% human erythrocytes, AMPs 100 µM, 405 nm, pos. 10% Triton X-100, neg. PBS, 3 biological x 2 technical replicates). The Calculated hemolysis ratio in data set [1] (incubation 90 min, 37 °C, 1% human erythrocytes, AMPs 100 µM, 405 nm, pos. 10% Triton X-100, neg. PBS, 3 biological x 2 technical replicates) was 40.1 ±13.9%; in data set [1] (incubation 120 min, 37 °C, 1% human erythrocytes, AMPs 100 µM, 405 nm, pos. 10% Triton X-100, neg. PBS, 3 biological x 2 technical replicates), 47 ± 13.6%; in data set [1] (total incubation volume 100 μL, 1% washed human erythrocytes, peptides 100 μM, 60 min 37 °C, 405 nm, pos. 10% Triton X-100, neg. PBS, 3 x 2 replicates), 43.1 ± 18.6%; in data set [1] (total incubation volume 500 μL, 1% washed human erythrocytes, peptides 100 μM, 60 min 37 °C, 405 nm, pos. 10% Triton X-100, neg. PBS, 3 x 2 replicates), 31.4 ± 10.7%; in the data set with human whole blood (OD 405 nm (signal saturated), pos. 10% SDS) it was 98.2 ± 0.4%; with human whole blood (OD 530 nm, pos. 10% SDS) it was 38.4 ± 8.5%. For the same compound, the Calculated hemolysis ratio with human whole blood (OD 570 nm, pos. 10% Triton X-100 (table title; text says 10% SDS)) was 62.8 ± 1.4%. For the same compound, the “Calculated Hemolysis (%)” value in data set [1] (2% pooled human erythrocytes, AMPs 100 µM, 60 min 37 °C, 405 nm, pos. 10% Triton X-100, neg. PBS, 3 x 2 replicates) was 27.1 ± 2.7%; in data set [1] (5% pooled human erythrocytes, AMPs 100 µM, 60 min 37 °C, 405 nm, pos. 10% Triton X-100, neg. PBS, 3 x 2 replicates) it was 22.7 ± 9%; in data set [1] (Table 3: 1% pooled human erythrocytes, AMPs 100 µM, 60 min 37 °C, 405 nm, pos. 10% Triton X-100, neg. PBS, 3 x 2 replicates), 32.6 ± 7.3%. Further, the “Fluorescence intensity per cell of remaining intact cells (live/dead stain)” value in data set [2] is given as “low fluorescence”.
Regarding Tween-20 [reference compound], in the data set on human whole blood (melittin 100 μM), the “Blood clotting in whole blood” value was “tendency of the blood to clot at higher Tween concentrations”.
As for `CCCCCCCCCCCCOS(=O)(=O)[O-].[Na+]` [SDS, Sodium Dodecyl Sulfate, reference compound], in data set [1] (at 0.02% detergent, human erythrocytes, decreases at higher concentrations (Figure S3)), the “Peak OD of free hemoglobin” value was 0,8. In addition, in the data set with human whole blood (setting [13]), the “Absorbance of free hemoglobin at 530 nm” value was 2.2 and the “Absorbance of free hemoglobin at 570 nm” value is on record as 1.7.
As to “MNLVDRAILIRKRRRAALQLRDKVLRYLK-NH2 [AMP 1]”, the “Fold difference in HR at 120 min incubation relative to the shortest incubation times” value in data set [1] (1% washed human erythrocytes, 405 nm, Table 4) worked out at 1.65 fold. Further, the Calculated hemolysis ratio in data set [1] (setting [3]) is listed as 21.9 ± 4%; in data set [1] (setting [4]), 23 ± 2.8%; in data set [1] (setting [5]) it was 23.7 ± 2.1%; in data set [1] (setting [6]), 21.3 ± 3%; in data set [1] (setting [7]) it was 19.7 ± 3.7%; in data set [1] (setting [8]), 19.6 ± 4.7%. Also, the Calculated hemolysis ratio in data set [1] (setting [9]) is recorded as 18.8 ± 4%; in data set [1] (setting [10]), 21.7 ± 8.6%; in data set [1] (setting [11]), 22.9 ± 6.8%; in data set [1] (setting [12]), 25.1 ± 13%. Further, the “Observed hemolytic properties (qualitative)” value in data set [1] (reason for choice of the AMPs) is on record as “medium”. The “Minimum inhibitory concentration (E. coli)” value with E. coli was determined as 2 µM. For the same compound, the “Fold decrease of hemolytic effect in rabbit whole blood vs washed rabbit erythrocytes” value in the data set on rabbit whole blood is given as “slightly increased hemolytic effect”. In addition, the Hemolysis ratio in the data set on rabbit erythrocytes was 7.1 +/- 1.1%; in the data set on rat erythrocytes it was 12.9 +/- 1.7%. In addition, in the data set with mouse erythrocytes, the “HR in mouse sample compared to rabbit sample” value is given as “over four times higher”.
